Measurements published in ChEMBL document CHEMBL1201862, “PubChem BioAssay data set” (2004).
The source made the active and inactive calls.

Tests used:
[1] = molecular target: T1, Sentrin-specific protease 1 (Homo sapiens, UniProt Q9P0U3); assay: potency of human SENP1 inhibitors, dose response, biochemical, kinetic FRET (AID 651697); format: functional; details: read-out: IC50_Mean
T1 sequence (Q9P0U3 whole entry): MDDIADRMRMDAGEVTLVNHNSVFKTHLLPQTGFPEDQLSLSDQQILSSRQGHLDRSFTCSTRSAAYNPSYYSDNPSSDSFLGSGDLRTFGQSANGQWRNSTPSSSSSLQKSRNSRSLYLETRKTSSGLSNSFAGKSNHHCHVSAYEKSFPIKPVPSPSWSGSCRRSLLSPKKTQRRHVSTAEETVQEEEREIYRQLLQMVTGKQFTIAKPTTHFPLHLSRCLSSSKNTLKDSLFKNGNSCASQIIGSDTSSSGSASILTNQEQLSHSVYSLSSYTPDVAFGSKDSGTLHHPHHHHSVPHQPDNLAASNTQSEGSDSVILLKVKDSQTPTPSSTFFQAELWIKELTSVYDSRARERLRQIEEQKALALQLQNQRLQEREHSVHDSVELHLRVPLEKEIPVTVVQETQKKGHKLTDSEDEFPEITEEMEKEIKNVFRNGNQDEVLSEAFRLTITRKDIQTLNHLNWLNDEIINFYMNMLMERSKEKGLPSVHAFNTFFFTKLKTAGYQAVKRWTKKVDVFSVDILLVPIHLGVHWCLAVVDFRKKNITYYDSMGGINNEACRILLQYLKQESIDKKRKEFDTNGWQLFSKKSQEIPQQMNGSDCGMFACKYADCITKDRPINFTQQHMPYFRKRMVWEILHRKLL

[2] = molecular target: T1, Sentrin-specific protease 1; assay: Dose response confirmation of small molecule inhibitors of the catalytic domain of the SUMO protease, SENP1 in a FRET assay.; format: functional; details: read-out: IC50_Mean
[3] = molecular target: T2, Ubiquitin-conjugating enzyme E2 N (Homo sapiens, UniProt P61088); format: functional;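 further: Dose-response confirmation in a TR-FRET assay detecting UBC13-driven polyubiquitin chain formation, inhibition measured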
T2 sequence (P61088 whole entry): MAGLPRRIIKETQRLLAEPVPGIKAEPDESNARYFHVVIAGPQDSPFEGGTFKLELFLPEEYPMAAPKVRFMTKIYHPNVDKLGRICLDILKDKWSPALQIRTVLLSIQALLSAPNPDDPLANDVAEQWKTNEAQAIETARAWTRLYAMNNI

[4] = inhibitors of SNCA 5'UTR-driven reporter translation, confirmation, H4 neuroglioma cells, luminescence (AID 1988); format: functional, cell-based
[5] = inhibitors of firefly luciferase expression or activity, dose response, H4 neuroglioma cells, luminescence (AID 1990); format: functional, cell-based
Prothrombin = Prothrombin (Bos taurus, UniProt P00735); assay: thrombin inhibition, dose response, biochemical, fluorescence polarization, uHTS hits (AID 602369); format: functional
[6] = molecular target: 72 kDa type IV collagenase (Homo sapiens, UniProt P08253); assay: Dose Response validation of uHTS RPN11 inhibitor hits using a MMP-2 Fluorescence assay.; format: functional
Sequence of 72 kDa type IV collagenase (P08253 whole entry): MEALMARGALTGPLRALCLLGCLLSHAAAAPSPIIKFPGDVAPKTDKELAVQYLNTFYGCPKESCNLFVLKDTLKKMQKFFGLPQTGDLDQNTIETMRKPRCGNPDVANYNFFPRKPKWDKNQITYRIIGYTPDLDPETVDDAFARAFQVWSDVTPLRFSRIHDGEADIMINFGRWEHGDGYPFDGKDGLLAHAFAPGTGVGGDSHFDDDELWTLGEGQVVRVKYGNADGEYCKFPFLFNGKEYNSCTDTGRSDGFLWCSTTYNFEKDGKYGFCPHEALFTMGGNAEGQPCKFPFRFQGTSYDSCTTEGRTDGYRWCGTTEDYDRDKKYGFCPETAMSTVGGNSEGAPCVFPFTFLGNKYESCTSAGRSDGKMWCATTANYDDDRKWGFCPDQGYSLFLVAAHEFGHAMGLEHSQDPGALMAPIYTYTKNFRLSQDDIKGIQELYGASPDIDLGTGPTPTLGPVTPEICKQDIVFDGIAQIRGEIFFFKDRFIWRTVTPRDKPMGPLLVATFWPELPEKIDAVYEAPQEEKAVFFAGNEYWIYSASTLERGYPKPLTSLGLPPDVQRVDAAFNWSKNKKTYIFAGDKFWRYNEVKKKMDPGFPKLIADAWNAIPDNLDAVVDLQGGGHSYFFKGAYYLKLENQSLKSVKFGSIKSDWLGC

Vero [7] = assay: cells; format: functional; details: Chlorocebus sabaeus
[8] = Luminescence Cell-Based Dose Response HTS to Identify Inhibitors of 5'UTR Stem-Loop Driven Prion Protein mRNA Translation in H4 Neuroglioblastoma Cells. [Related pubchem assays: 1827 (Project Summary), 1813 (Primary HTS)]; format: functional
[9] = molecular target: 26S proteasome non-ATPase regulatory subunit 14 (Homo sapiens, UniProt O00487); assay: inhibition of proteasome subunit RPN11 – biochemical, fluorescence polarization, uHTS hits, confirmation (AID 602368); format: functional
Sequence of 26S proteasome non-ATPase regulatory subunit 14 (O00487 whole entry): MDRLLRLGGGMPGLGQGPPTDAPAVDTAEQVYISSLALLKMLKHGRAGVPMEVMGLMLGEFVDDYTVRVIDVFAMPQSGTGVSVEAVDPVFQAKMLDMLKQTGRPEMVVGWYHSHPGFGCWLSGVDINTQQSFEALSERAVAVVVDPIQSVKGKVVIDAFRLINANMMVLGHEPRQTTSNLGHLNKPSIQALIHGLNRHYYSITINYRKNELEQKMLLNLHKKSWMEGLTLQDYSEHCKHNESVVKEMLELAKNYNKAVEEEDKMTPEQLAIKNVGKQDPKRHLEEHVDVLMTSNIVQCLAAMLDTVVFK

Leucine aminopeptidase = molecular target: T3, Leucine aminopeptidase (Plasmodium falciparum 3D7, UniProt Q8IL11); assay: P. falciparum M17LAP inhibitors, primary screen, biochemical, fluorogenic H-Leu-NHMec substrate, 1536-well (AID 1619); format: functional
T3 sequence (Q8IL11 whole entry): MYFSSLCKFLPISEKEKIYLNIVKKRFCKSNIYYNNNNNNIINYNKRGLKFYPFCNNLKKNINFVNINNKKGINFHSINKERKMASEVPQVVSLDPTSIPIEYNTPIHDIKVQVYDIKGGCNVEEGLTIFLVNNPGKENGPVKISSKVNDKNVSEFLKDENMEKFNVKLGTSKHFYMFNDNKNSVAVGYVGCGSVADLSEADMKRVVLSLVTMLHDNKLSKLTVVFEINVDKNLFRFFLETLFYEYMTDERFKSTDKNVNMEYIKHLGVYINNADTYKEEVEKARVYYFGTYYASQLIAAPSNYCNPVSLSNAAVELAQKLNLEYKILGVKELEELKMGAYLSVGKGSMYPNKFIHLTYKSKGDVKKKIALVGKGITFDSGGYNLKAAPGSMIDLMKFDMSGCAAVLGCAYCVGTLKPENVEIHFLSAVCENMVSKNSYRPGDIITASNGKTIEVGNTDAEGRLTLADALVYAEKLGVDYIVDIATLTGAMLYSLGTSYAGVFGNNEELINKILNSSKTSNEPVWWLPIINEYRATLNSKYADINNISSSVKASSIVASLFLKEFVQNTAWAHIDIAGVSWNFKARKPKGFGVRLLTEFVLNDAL

[10] = molecular target: T4, Small ubiquitin-related modifier 1 (Homo sapiens, UniProt P63165); assay: inhibitors of SUMO1 peptide binding, dose response, biochemical, fluorescence polarization, uHTS hits (AID 624382); format: functional; details: read-out: IC50_Mean
T4 sequence (P63165 whole entry): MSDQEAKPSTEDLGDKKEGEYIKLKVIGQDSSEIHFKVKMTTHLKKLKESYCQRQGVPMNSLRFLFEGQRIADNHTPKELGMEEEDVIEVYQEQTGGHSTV

[11] = molecular target: T4, Small ubiquitin-related modifier 1; assay: inhibitors of SUMO1 partner interactions, dose response, biochemical, FRET (AID 624383); format: functional; details: read-out: IC50_Mean
Genome polyprotein = Genome polyprotein (dengue virus type 2, UniProt P29990); assay: Dengue-2 NS5 methyltransferase inhibitors, primary screen, biochemical, confirmation dose response (AID 588689); format: functional
Sequence of Genome polyprotein (P29990 2492-3391 limits assumed): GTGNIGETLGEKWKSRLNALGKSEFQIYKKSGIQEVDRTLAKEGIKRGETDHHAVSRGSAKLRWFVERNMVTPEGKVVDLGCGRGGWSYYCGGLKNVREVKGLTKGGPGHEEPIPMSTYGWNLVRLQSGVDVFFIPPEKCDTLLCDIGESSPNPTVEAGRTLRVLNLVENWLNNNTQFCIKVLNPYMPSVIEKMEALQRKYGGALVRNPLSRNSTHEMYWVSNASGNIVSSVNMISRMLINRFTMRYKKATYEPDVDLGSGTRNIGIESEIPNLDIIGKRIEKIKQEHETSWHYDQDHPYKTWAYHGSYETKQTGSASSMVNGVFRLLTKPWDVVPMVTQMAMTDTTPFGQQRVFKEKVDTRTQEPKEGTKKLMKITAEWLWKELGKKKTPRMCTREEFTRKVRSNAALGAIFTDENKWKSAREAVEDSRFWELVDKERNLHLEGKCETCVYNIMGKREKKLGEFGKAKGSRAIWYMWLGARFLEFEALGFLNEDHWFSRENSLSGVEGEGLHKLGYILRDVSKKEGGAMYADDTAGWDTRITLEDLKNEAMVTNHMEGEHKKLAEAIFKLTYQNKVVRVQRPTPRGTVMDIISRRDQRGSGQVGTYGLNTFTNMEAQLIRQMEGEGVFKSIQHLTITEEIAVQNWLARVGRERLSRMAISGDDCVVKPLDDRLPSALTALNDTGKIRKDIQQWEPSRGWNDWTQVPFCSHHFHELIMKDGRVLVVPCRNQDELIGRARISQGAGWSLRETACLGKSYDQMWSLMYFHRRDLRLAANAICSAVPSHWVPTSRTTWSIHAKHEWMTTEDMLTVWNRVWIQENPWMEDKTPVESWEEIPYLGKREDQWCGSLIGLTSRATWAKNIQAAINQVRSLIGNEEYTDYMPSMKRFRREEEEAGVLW

[12] = molecular target: Photoreceptor-specific nuclear receptor (Homo sapiens, UniProt Q9Y5X4); format: functional, cell-based;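 further: CHO-S cells with Gal4-NCOR and VP16-NR2E3 two-hybrid luciferase reporter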
Sequence of Photoreceptor-specific nuclear receptor (Q9Y5X4 whole entry, the tested form may be a part): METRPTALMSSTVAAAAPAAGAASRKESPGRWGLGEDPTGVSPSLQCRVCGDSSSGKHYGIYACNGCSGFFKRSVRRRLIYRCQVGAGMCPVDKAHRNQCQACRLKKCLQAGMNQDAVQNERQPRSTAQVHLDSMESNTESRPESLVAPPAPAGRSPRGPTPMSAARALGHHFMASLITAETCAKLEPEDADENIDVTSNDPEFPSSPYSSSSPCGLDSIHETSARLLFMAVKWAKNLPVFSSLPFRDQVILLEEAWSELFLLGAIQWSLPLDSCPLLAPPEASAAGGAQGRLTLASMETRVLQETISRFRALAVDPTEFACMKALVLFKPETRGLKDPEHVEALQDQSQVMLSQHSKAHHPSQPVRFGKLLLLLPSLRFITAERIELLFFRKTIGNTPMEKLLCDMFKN

Vero [13] = assay: Vero cell cytotoxicity, cytotoxicity control for flavivirus capping enzyme inhibitors (AID 588742); format: functional; details: Chlorocebus sabaeus
[14] = StAR promoter reporter inhibition counter-screen, dose response, counter-screen for LRH-1 inverse agonist project, cell-based, luminescence, luciferase reporter (AID 651969); format: functional
[15] = molecular target: Nuclear receptor subfamily 5 group A member 2 (Homo sapiens, UniProt O00482); format: functional, cell-based;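 further: HEK293T cells transfected with LRH-1 and a StAR promoter luciferase reporter; potency for inhibitors that lower LRH-1 driven reporter light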
Sequence of Nuclear receptor subfamily 5 group A member 2 (O00482 whole entry): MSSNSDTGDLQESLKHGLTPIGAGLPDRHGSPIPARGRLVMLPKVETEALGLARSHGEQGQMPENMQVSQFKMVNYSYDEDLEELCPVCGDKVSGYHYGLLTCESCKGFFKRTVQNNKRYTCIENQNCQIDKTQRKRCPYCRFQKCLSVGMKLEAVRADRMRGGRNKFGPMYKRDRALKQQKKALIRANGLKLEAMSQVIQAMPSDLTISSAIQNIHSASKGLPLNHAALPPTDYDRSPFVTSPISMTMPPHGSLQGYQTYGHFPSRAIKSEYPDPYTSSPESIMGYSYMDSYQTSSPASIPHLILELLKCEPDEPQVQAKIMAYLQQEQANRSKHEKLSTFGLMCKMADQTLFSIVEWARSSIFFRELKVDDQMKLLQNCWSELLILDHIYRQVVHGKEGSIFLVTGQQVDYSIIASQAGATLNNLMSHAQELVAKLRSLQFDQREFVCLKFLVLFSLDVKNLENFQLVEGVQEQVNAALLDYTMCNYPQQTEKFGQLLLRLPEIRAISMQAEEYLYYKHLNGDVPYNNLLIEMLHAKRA

Steroidogenic factor 1 = Steroidogenic factor 1 (Homo sapiens, UniProt Q13285); assay: Counterscreen for inverse agonists of the liver receptor homolog-1 (LRH-1; NR5A2): Luminescence-based cell-based high throughput dose response assay to identify inverse agonists of the Steroidogenic Factor 1 Nuclear Receptor (SF1; NR5A1).; format: functional
Sequence of Steroidogenic factor 1 (Q13285 whole entry): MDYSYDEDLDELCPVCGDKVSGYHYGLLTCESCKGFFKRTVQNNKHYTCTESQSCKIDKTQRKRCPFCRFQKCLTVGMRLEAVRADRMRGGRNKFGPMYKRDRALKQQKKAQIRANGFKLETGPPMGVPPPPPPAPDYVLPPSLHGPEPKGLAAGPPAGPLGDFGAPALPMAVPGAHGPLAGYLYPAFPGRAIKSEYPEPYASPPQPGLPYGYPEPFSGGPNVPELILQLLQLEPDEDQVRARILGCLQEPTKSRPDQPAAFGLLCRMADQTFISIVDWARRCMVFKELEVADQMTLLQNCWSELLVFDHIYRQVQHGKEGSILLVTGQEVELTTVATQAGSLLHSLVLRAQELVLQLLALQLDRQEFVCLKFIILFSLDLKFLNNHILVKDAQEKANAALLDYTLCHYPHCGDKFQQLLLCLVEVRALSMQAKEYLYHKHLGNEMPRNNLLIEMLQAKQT

HEK293 [16] = assay: cells; format: functional, cell-based; details: Homo sapiens
HEK293 [17] = assay: NOD1 signaling inhibitors, primary screen, cell-based, luminescence, uHTS (AID 1578); format: functional; details: Homo sapiens
HEK293 [18] = assay: NOD2 signaling inhibitors in MDP-stimulated cells, cell-based, uHTS, luminescence (AID 2001); format: functional; details: Homo sapiens
[19] = molecular target: T5, Corticotropin-releasing factor receptor 2/Corticotropin-releasing factor-binding protein (Homo sapiens, UniProt P24387+Q13324); assay: activators of CRF receptor 2 with binding protein – uHTS hits, confirmation (AID 602473); format: functional; details: read-out: EC50_Mean
T5 sequence (Q13324 whole entry): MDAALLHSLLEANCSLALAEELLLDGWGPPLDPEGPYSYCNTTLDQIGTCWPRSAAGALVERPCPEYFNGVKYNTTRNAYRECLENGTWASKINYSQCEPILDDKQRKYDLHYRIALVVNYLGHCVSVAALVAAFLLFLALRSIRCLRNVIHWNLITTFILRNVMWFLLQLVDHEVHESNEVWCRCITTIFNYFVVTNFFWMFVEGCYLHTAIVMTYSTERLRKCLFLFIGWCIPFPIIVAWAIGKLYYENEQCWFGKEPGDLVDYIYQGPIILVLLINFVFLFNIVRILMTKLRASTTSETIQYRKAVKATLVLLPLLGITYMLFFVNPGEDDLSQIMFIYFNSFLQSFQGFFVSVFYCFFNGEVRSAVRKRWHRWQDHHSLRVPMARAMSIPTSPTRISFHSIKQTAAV
T5 sequence (P24387 whole entry): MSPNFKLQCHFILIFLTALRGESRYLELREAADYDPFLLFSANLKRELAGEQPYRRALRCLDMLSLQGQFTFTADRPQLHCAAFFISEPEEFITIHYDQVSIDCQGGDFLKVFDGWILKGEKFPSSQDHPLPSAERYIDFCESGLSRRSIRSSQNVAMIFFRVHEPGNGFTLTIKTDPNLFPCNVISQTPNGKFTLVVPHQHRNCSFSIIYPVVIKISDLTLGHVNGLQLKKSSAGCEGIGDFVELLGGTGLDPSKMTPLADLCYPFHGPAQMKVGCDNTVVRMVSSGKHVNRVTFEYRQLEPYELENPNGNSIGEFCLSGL

[20] = CRF-BP/CRF-R2 complex antagonists, dose response, cell-based, uHTS hits, 384-well (AID 651639); format: functional, Homo sapiens; details: read-out: IC50_Mean
HEK293 [21] = assay: cells; format: functional, cell-based; details: Homo sapiens; remark: listed apart in the source
[22] = molecular target: T5, Corticotropin-releasing factor receptor 2/Corticotropin-releasing factor-binding protein; assay: Dose Response confirmation of uHTS hits for small molecule antagonists of the CRF-binding protein and CRF-R2 receptor complex.; format: functional; details: read-out: IC50_Mean

For COc1cc(/C=C2\SC(=S)N(CC(=O)O)C2=O)ccc1OC(=O)c1ccco1, which IC50 [1] is on record?
Its IC50 is 4.52 µM (active).

And the IC50 [2]?
Its IC50 is 7.29 µM (active).

With COc1ccccc1NN=C1C(=O)NC(=S)NC1=O as the molecule, how does the IC50 [1] read?
The IC50 was 23.3 µM (inactive).

And the IC50 [2]?
Its IC50 is 18 µM (active).

With CN1CCc2c(sc3c2C(=O)NC(c2cn(Cc4ccccc4)c4ccccc24)N3)C1 (stereo not given) as the molecule, how does the IC50 [3] read?
The IC50 was > 20 µM (inactive).

And the EC50 [4]?
The EC50 was 5.25 µM (active).

And the EC50 [5]?
The EC50 was 8.71 µM (active).

And the IC50 (Prothrombin)?
The IC50 was 16 µM (active).

And the IC50 [6]?
Its IC50 is > 100 µM (inactive).

What about the CC50 (Vero [7]) of the same molecule?
The CC50 was 17.1 µM (active).

And the EC50 [8]?
The EC50 was 8.12 µM (active).

What about the IC50 [9] of the same molecule?
Its IC50 is 23.4 µM (active).

What does the source list for O=C(NCC1CCCO1)c1sc(=S)n2c1[nH]c(=O)c1ccc(C(=O)N3CCCCC3)cc12 (stereo not given)?
IC50 [1]: 51.1 µM (inactive); IC50 [2]: 21.1 µM (inactive); IC50 (Leucine aminopeptidase): 65.4 µM (active)

For Cc1ccc(S(=O)(=O)N2[C@@H](c3ccc(Br)cc3)C(C(=O)O)=CC[C@H]2c2ccc(Cl)c(Cl)c2)cc1, which IC50 [10] is on record?
The IC50 was > 66.6 µM (inactive).

And the IC50 [11]?
Its IC50 is 6.25 µM (active).

What about the IC50 (Genome polyprotein) of the same molecule?
Its IC50 is 42.9 µM (active).

What about the IC50 [12] of the same molecule?
The IC50 was 5.2 µM (active).

And the CC50 (Vero [13])?
Its CC50 is > 40 µM (active).

What does the source list for CCCc1nnc(SCC(=O)Nc2ccc(OC)cc2)o1?
IC50 [14]: 35.9 µM (inactive); IC50 [15]: 6.68 µM (active); IC50 (Steroidogenic factor 1): 15.5 µM (inactive)

For C/C(=N\NC(=O)c1cc(Cl)ccc1O)c1ccc(Br)s1, which IC50 (HEK293 [16]) is on record?
The IC50 was 5.47 µM (active).

What about the EC50 (HEK293 [17]) of the same molecule?
Its EC50 is 1.93 µM (active).

What about the IC50 (HEK293 [18]) of the same molecule?
The IC50 was 6.21 µM (inactive).

What about the EC50 [19] of the same molecule?
The EC50 was > 53 µM (inactive).

And the IC50 [20]?
The IC50 was > 20 µM (inactive).

And the IC50 (HEK293 [21])?
The IC50 was > 20 µM (inactive).

And the IC50 [22]?
The IC50 was < 368 nM (active).
